Columns and labels:
HeLa = experiment: Antimitotic activity against human HeLa cells after 18 hrs; assay type: functional, cell-based
HT-29 = experiment: Cytotoxicity against human HT29 cells after 72 hrs; assay type: cell-based; settings: ht-29, 72 h
[1] = Cytotoxicity against human HL60 cells after 72 hrs; assay type: cell-based, HL-60
[2] = Cytotoxicity against human Jurkat T cells after 72 hrs; assay type: cell-based
[3] = Cytotoxicity against human A549 cells after 72 hrs; assay type: cell-based
[4] = Cytotoxicity against human MDA-MB-231 cells after 72 hrs; assay type: cell-based
Jurkat = experiment: Cytotoxicity against human Jurkat T cells at <100 uM after 72 hrs; assay type: cell-based
HL-60 = experiment: Cytotoxicity against human HL60 cells at <100 uM after 72 hrs; assay type: cell-based; settings: hl-60, 72 h

SMILES	IC50 (HeLa)	GI (HT-29)	GI50 at 72 h [1]	GI50 at 72 h [2]	GI50 at 72 h [3]	GI50 at 72 h [4]	Activity (Jurkat)	Activity (HL-60)
COc1ccc(CCN(CC(=O)NCCC(c2ccccc2)c2ccccc2)C(=O)CNCCC(c2ccccc2)c2ccccc2)cc1	0.025 µM	1.04 µM	2.94 µM	3.75 µM	1.02 µM	1.02 µM	–	–
COc1ccc(CCNCC(=O)NCCC(c2ccccc2)c2ccccc2)cc1	0.994 µM	1.89 µM	10.6 µM	18 µM	3.73 µM	2.73 µM	–	–
NC(=O)CN(CCC(c1ccccc1)c1ccccc1)C(=O)CNCC1CCCO1 (stereo unspecified)	–	–	–	–	–	–	Not Active	Not Active
COc1ccc(CCN(CC(N)=O)C(=O)CNCCC(c2ccccc2)c2ccccc2)cc1	–	9.14 µM	31.1 µM	33.9 µM	–	19.1 µM	–	–
COc1ccc(CCN(CC(=O)N(CCC(c2ccccc2)c2ccccc2)CC(N)=O)C(=O)CNCCC(c2ccccc2)c2ccccc2)cc1	–	1.41 µM	21.8 µM	6.68 µM	1.41 µM	1.32 µM	–	–
NC(=O)CN(CCC(c1ccccc1)c1ccccc1)C(=O)CNCCC(c1ccccc1)c1ccccc1	0.154 µM	1.64 µM	13.2 µM	10.5 µM	3.08 µM	3.08 µM	–	–
COc1ccc(CCN2CC(=O)N(CCC(c3ccccc3)c3ccccc3)CC2=O)cc1	–	–	–	–	–	–	Not Active	Not Active
NC(=O)CN(CC1CCCO1)C(=O)CNCCC(c1ccccc1)c1ccccc1 (stereo unspecified)	–	–	–	–	–	–	Not Active	Not Active
O=C(CNCCC(c1ccccc1)c1ccccc1)NCCC(c1ccccc1)c1ccccc1	0.035 µM	3.03 µM	12.6 µM	10.2 µM	3.46 µM	3.46 µM	–	–
COc1ccc(CCNCC(=O)N(CCC(c2ccccc2)c2ccccc2)CC(N)=O)cc1	–	9.14 µM	29.1 µM	27.3 µM	9.36 µM	9.36 µM	–	–
NC(=O)CN(CCC(c1ccccc1)c1ccccc1)C(=O)CN(CCC(c1ccccc1)c1ccccc1)C(=O)CNCC1CCCO1 (stereo unspecified) [TRIMER I]	–	2.27 µM	3.55 µM	21.3 µM	2.57 µM	2.72 µM	–	–
O=C1CN(CC2CCCO2)C(=O)CN1CCC(c1ccccc1)c1ccccc1 (stereo unspecified)	–	–	–	–	–	–	Not Active	Not Active
O=C(CN(CCC(c1ccccc1)c1ccccc1)C(=O)CNCC1CCCO1)NCCC(c1ccccc1)c1ccccc1 (stereo unspecified)	–	0.94 µM	23 µM	5.83 µM	1.06 µM	1.06 µM	–	–

Reference: ChEMBL document CHEMBL1139856, “Smallest peptoids with antiproliferative activity on human neoplastic cells” (J Med Chem, 2007)
